Like-named read-outs stand apart in the source and are kept apart here.

The target in experiment [1] is T1, His-GST-TVMV-hRIPK1(1-324) (Homo sapiens, UniProt Q13546).
T1 construct: The coding region of human RIPK1(1-324) flanked by NdeI site at 5′ end; made in house; host or cells: Spodoptera frugiperda (Sf9) insect cells, baculovirus
T1 sequence (Q13546 1-324): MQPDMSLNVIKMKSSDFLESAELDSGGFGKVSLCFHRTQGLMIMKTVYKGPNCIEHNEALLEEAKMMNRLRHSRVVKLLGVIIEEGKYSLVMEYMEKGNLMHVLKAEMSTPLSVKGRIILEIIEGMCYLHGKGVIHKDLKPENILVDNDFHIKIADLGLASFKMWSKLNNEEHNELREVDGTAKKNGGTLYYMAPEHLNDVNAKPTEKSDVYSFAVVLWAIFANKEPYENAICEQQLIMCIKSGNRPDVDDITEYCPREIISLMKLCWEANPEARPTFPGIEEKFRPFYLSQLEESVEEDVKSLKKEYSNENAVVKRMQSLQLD
Nature of the experiment: RIPK1 HTRF Binding Assay. A general note: Time-resolved FRET reads energy transfer from a long-lived donor to a nearby acceptor.

In experiment [2] the test system is MLKL phosphorylation in HT29-L23 human colorectal adenocarcinoma cells. Description: MLKL Phosphorylation High-Content Assay. The class given is cell-based. As to conditions: Homo sapiens. Summed up:
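Cells incubated six hours at 37° C., then phospho-MLKL (S358) immunostained overnight at 4° C. and imaged by high-content microscopy. Phosphorylation quantified as mean circ-ring average intensity ratio; IC50 and Ymax from 4-parameter logistic fits.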

Where [3] appears, read: x marks IC50 class >200 nM, read-out: pMLKL cell activity >200 nM.
Where [4] appears, read: x marks IC50 class <20 nM, read-out: RIPK1 HTRF binding <20 nM.
[5] abbreviates: x marks IC50 class <20 nM, read-out: pMLKL cell activity <20 nM.
Setting [6] is: x marks IC50 class 20-200 nM, read-out: pMLKL cell activity 20-200 nM.
Setting [7] is: x marks IC50 class 20-200 nM, read-out: RIPK1 HTRF binding 20-200 nM.

Take `[2H]C([2H])([2H])Oc1nc(C)c(-c2ccn3nc(N)nc3c2)cc1C(=O)NC(C)c1ccccc1OC(F)(F)F` (single isomer, unassigned) [Example 98-1, 5-{2-amino-[1,2,4]triazolo[1,5-a]pyridin-7-yl}-2-(deutero)methoxy-6-methyl-N-{1-[2-(trifluoromethoxy)phenyl]ethyl}pyridine-3-carboxamide]: the IC50 in experiment [1] (x marks IC50 class >200 nM, read-out: RIPK1 HTRF binding >200 nM) was over 200 nM; in experiment [2] (setting [3]), over 200 nM.

Regarding `Cc1ncc(-c2ccn3nc(N)nc3c2)cc1C(=O)NCc1ccccc1OC1CCC(C)C1` (centres unmarked) [Example 237, 5-{2-amino-[1,2,4]triazolo[1,5-a]pyridin-7-yl}-2-methyl-N-({2-[(3-methylcyclopentyl)oxy]phenyl}methyl)pyridine-3-carboxamide], the IC50 in experiment [1] (setting [4]) and in experiment [2] (setting [5]) was under 20 nM each time.

Take `Cc1cnc(-c2ccn3nc(N)nc3c2)cc1C(=O)N[C@H](C)c1cc(OC(F)(F)F)ccc1F` [Example 392, (R)-2-(2-amino-[1,2,4]triazolo[1,5-a]pyridin-7-yl)-N-(1-(2-fluoro-5-(trifluoromethoxy)phenyl)ethyl)-5-methylisonicotinamide]: the results for the IC50 in experiment [1] (setting [4]) and in experiment [2] (setting [6]) were under 20 nM and 20 to 200 nM, respectively.

Regarding `COc1nc(C)c(-c2ccn3nc(N)nc3c2)cc1C(=O)NCc1ccccc1OC1CCOC1` (centres unmarked) [Example 6, 5-{2-Amino-[1,2,4]triazolo[1,5-a]pyridin-7-yl}-2-methoxy-6-methyl-N-{[2-(oxolan-3-yloxy)phenyl]methyl}pyridine-3-carboxamide], the IC50 in experiment [1] (setting [4]) and in experiment [2] (setting [5]) was under 20 nM throughout.

Turning to `Cc1ncc(-c2ccn3nc(N)nc3c2)cc1C(=O)NCc1cccc(OCC(F)(F)F)c1` [Example 313, 5-(2-amino-[1,2,4]triazolo[1,5-a]pyridin-7-yl)-2-methyl-N-(3-(2,2,2-trifluoroethoxy)benzyl)nicotinamide], the IC50 in experiment [1] (setting [7]) is 20 to 200 nM; in experiment [2] (setting [3]), over 200 nM.

With `COc1ccccc1[C@@H](C)NC(=O)c1cc(-c2ccn3nc(N)nc3c2)cnc1OC` [Example 156, 5-{2-amino-[1,2,4]triazolo[1,5-a]pyridin-7-yl}-2-methoxy-N-[(1R)-1-(2-methoxyphenyl)ethyl]pyridine-3-carboxamide], the figures for the IC50 in experiment [1] (setting [7]) and in experiment [2] (setting [3]) were 20 to 200 nM and over 200 nM, respectively.

As to `COc1nnc(-c2ccn3nc(N)nc3c2)cc1C(=O)NCCC(C)c1ccccc1` (centres unmarked) [Example 387, 6-(2-amino-[1,2,4]triazolo[1,5-a]pyridin-7-yl)-3-methoxy-N-(3-phenylbutyl)pyridazine-4-carboxamide], the IC50 in experiment [1] (setting [7]) was 20 to 200 nM; in experiment [2] (setting [3]), over 200 nM.

For `COc1nc(C)c(-c2ccn3nc(N)nc3c2)cc1C(=O)NCc1cc(F)ccc1OC1CCCC1` [Example 216, 5-{2-amino-[1,2,4]triazolo[1,5-a]pyridin-7-yl}-N-{[2-(cyclopentyloxy)-5-fluorophenyl]methyl}-2-methoxy-6-methylpyridine-3-carboxamide], the IC50 in experiment [1] (setting [4]) and in experiment [2] (setting [5]) was under 20 nM in each case.

With `COc1nc(C)c(-c2ccn3nc(N)nc3c2)cc1C(=O)N(C)[C@H](C)c1cc(OC(F)(F)F)ccc1F` [Example 325, (R)-5-(2-amino-[1,2,4]triazolo[1,5-a]pyridin-7-yl)-N-(1-(2-fluoro-5-(trifluoromethoxy)phenyl)ethyl)-2-methoxy-N,6-dimethylnicotinamide], the IC50 in experiment [1] (setting [7]) and in experiment [2] (setting [6]) was 20 to 200 nM throughout.

For the compound `Cc1cnc(-c2ccn3nc(N)nc3c2)nc1C(=O)N[C@H](C)c1cc(OC(F)(F)F)ccc1F` [Example 407, (R)-2-(2-amino-[1,2,4]triazolo[1,5-a]pyridin-7-yl)-N-(1-(2-fluoro-5-(trifluoromethoxy)phenyl)ethyl)-5-methylpyrimidine-4-carboxamide], the IC50 in experiment [1] (setting [7]) and in experiment [2] (setting [6]) was 20 to 200 nM throughout.

On to `COc1nc(C)c(-c2ccn3nc(N)nc3c2)cc1C(=O)NCc1cc(F)cc(F)c1OC1CCCOC1` (centres unmarked) [Example 350, 5-(2-amino-[1,2,4]triazolo[1,5-a]pyridin-7-yl)-N-(3,5-difluoro-2-((tetrahydro-2H-pyran-3-yl)oxy)benzyl)-2-methoxy-6-methylnicotinamide], for which the IC50 in experiment [1] (setting [4]) and in experiment [2] (setting [5]) was under 20 nM in each case.

Take `COc1ncc(-c2ccn3nc(N)nc3c2)cc1C(=O)NCc1cc(F)ccc1C(=O)N1CCC(F)(F)C1` [Example 376, 5-(2-amino-[1,2,4]triazolo[1,5-a]pyridin-7-yl)-N-(2-(3,3-difluoropyrrolidine-1-carbonyl)-5-fluorobenzyl)-2-methoxynicotinamide]: the IC50 in experiment [1] (setting [4]) and in experiment [2] (setting [5]) was under 20 nM in each case.

On to `Cc1nc(C)c(-c2ccn3nc(N)nc3c2)cc1C(=O)NCc1cccnc1OCC1CCC1` [Example 187, 5-{2-amino-[1,2,4]triazolo[1,5-a]pyridin-7-yl}-N-{[2-(cyclobutylmethoxy)pyridin-3-yl]methyl}-2,6-dimethylpyridine-3-carboxamide], for which the IC50 in experiment [1] (setting [7]) and in experiment [2] (setting [6]) was 20 to 200 nM each time.

Take `COc1ncc(-c2ccn3nc(N)nc3c2)cc1C(=O)NCc1cc(C(F)(F)F)ccc1Cl` [Example 161, 5-{2-amino-[1,2,4]triazolo[1,5-a]pyridin-7-yl}-N-{[2-chloro-5-(trifluoromethyl)phenyl]methyl}-2-methoxypyridine-3-carboxamide]: the figures for the IC50 in experiment [1] (setting [4]) and in experiment [2] (setting [6]) were under 20 nM and 20 to 200 nM, respectively.

As to `COc1ncc(-c2ccn3nc(N)nc3c2)cc1C(=O)NCc1ccccc1N1CCC(C)CC1` [Example 108, 5-{2-amino-[1,2,4]triazolo[1,5-a]pyridin-7-yl}-2-methoxy-N-{[2-(4-methylpiperidin-1-yl)phenyl]methyl}pyridine-3-carboxamide], the IC50 in experiment [1] (setting [4]) and in experiment [2] (setting [5]) was under 20 nM throughout.

In the case of `Cc1ncc(-c2ccn3nc(N)nc3c2)cc1C(=O)NCc1cc(F)ccc1OC1CCCC1` [Example 242, 5-{2-amino-[1,2,4]triazolo[1,5-a]pyridin-7-yl}-N-{[2-(cyclopentyloxy)-5-fluorophenyl]methyl}-2-methylpyridine-3-carboxamide], the IC50 in experiment [1] (setting [4]) and in experiment [2] (setting [5]) was under 20 nM throughout.

As for `Nc1nc2cc(-c3cnc(Cl)c(C(=O)NCc4ccccc4OC(F)(F)F)c3)ccn2n1` [Example 168, 5-{2-amino-[1,2,4]triazolo[1,5-a]pyridin-7-yl}-2-chloro-N-{[2-(trifluoromethoxy)phenyl]methyl}pyridine-3-carboxamide], the IC50 in experiment [1] (setting [7]) is 20 to 200 nM; in experiment [2] (setting [3]) it was over 200 nM.

For the compound `COc1ncc(-c2ccn3nc(N)nc3c2)cc1C(=O)NCc1ncccc1OCC1CCC1` [Example 37, 5-{2-Amino-[1,2,4]triazolo[1,5-a]pyridin-7-yl}-N-{[3-(cyclobutylmethoxy)pyridin-2-yl]methyl}-2-methoxypyridine-3-carboxamide], the IC50 in experiment [1] (setting [4]) is under 20 nM; in experiment [2] (setting [6]), 20 to 200 nM.

Consider `Cc1ncc(-c2ccn3nc(N)nc3c2)cc1C(=O)NCc1cccnc1OC1CCCC1` [Example 240, 5-{2-amino-[1,2,4]triazolo[1,5-a]pyridin-7-yl}-N-{[2-(cyclopentyloxy)pyridin-3-yl]methyl}-2-methylpyridine-3-carboxamide], for which the IC50 in experiment [1] (setting [4]) is under 20 nM; in experiment [2] (setting [6]) it was 20 to 200 nM.

Turning to `Cc1nc(C)c(-c2ccn3nc(N)nc3c2)cc1C(=O)NCc1cccc(OC(F)(F)F)c1` [Example 189, 5-{2-amino-[1,2,4]triazolo[1,5-a]pyridin-7-yl}-2,6-dimethyl-N-{[3-(trifluoromethoxy)phenyl]methyl}pyridine-3-carboxamide], the IC50 in experiment [1] (setting [7]) and in experiment [2] (setting [6]) was 20 to 200 nM throughout.

As for `Cc1cnc(-c2ccn3nc(N)nc3c2)nc1C(=O)N[C@H](C)c1cc(C(F)(F)F)ccc1F` [Example 409, (R)-2-(2-amino-[1,2,4]triazolo[1,5-a]pyridin-7-yl)-N-(1-(2-fluoro-5-(trifluoromethyl)phenyl)ethyl)-5-methylpyrimidine-4-carboxamide], the IC50 in experiment [1] (setting [7]) and in experiment [2] (setting [6]) was 20 to 200 nM each time.

For `Cc1ncc(-c2ccn3nc(N)nc3c2)cc1C(=O)NCC[C@H](O)c1ccc(Cl)cc1` [Example 225], the IC50 in experiment [1] (setting [7]) and in experiment [2] (setting [6]) was 20 to 200 nM each time.

As to `Cc1ncc(-c2ccn3nc(N)nc3c2)cc1C(=O)NCc1c(F)cccc1OC1CCCC1` [Example 247, 5-{2-amino-[1,2,4]triazolo[1,5-a]pyridin-7-yl}-N-{[2-(cyclopentyloxy)-6-fluorophenyl]methyl}-2-methylpyridine-3-carboxamide], the IC50 in experiment [1] (setting [4]) and in experiment [2] (setting [5]) was under 20 nM in each case.

`CCCOc1ncc(-c2ccn3nc(N)nc3c2)cc1C(=O)NCc1ccccc1Sc1ccccc1CO` [Example 63]: the IC50 was under 20 nM in experiment [1] (setting [4]) and 20 to 200 nM in experiment [2] (setting [6]).

On to `Cc1ncc(-c2ccn3nc(N)nc3c2)cc1NC(=O)Cc1cc(OC(F)(F)F)ccc1F` [Example 420, N-(5-(2-amino-[1,2,4]triazolo[1,5-a]pyridin-7-yl)-2-methylpyridin-3-yl)-2-(2-fluoro-5-(trifluoromethoxy)phenyl)acetamide], for which the values for the IC50 in experiment [1] (setting [4]) and in experiment [2] (setting [6]) were under 20 nM and 20 to 200 nM, respectively.

(Values after patent US10913738B2 (BRISTOL-MYERS SQUIBB COMPANY, priority 2017, dated 2021).)
